# Data: patent publication EP0908457B1, “3-(1,2-benzisothiazol- and isoxazol-5-Y1)-2,4(1H,3H)-pyrimidinedione or thione and 3-(1,2-benzisothiazol- and isoxazol-5-y1)-4(3H)-pyrimidinone or thione herbicidal agents” (BASF AKTIENGESELLSCHAFT, priority 1997, dated 1999)
# Legend:
# Cyperus iria = test: Preemergence weed control under flooded paddy conditions, CYPIR (Rice Flatsedge); format: in vivo; conditions: preemergence, flooded paddy
# [1] = test system: Cyperus serotinus, Rottb.; test: Preemergence weed control under flooded paddy conditions, CYPSE (Flatsedge); format: in vivo; conditions: preemergence
# [2] = test system: Oryza sativa, (L.) Tebonnet; test: Rice tolerance to post-transplant applications under flooded paddy conditions (Example 187), ORYSAT (Rice, Tebonnet); as to herbicidal effect rating ORYSAT: meaning of each grade not given here
# [3] = test system: Echinochloa oryzoides (Ard.) Fritsch.; test: Preemergence weed control under flooded paddy conditions, ECHORC (Watergrass (Calif.)); format: in vivo; conditions: preemergence, flooded paddy
# [4] = test system: Monochoria vaginalis, Presl.; test: Preemergence weed control under flooded paddy conditions, MOOVA (Monochoria); format: in vivo; conditions: preemergence, flooded paddy
# Sagittaria pygmaea, L. = test: Preemergence weed control under flooded paddy conditions, SAGPY (Arrowhead (Pygmaea)); format: in vivo; conditions: preemergence, flooded paddy
# [5] = Rate 0.0320 kg/ha, rated 3-4 weeks after treatment
# [6] = Rate 0.0620 kg/ha, rated 3-4 weeks after treatment
# [7] = Rate 0.1250 kg/ha, rated 3-4 weeks after treatment
# [8] = Rate 0.2500 kg/ha, rated 3-4 weeks after treatment
# [9] = Rate 0.5000 kg/ha, rated 3-4 weeks after treatment
# [10] = Rate 0.0320 kg/ha, rated three to four weeks after treatment
# [11] = Rate 0.0620 kg/ha, rated three to four weeks after treatment
# [12] = Rate 0.1250 kg/ha, rated three to four weeks after treatment
# [13] = Rate 0.2500 kg/ha, rated three to four weeks after treatment
smiles,measurement,setting,value
"Cc1ccc(OC(C)(C)C(=O)OCCCl)c(-c2nsc3ccc(-n4c(=O)cc(C(F)(F)F)n(C)c4=O)cc23)c1 [Example 544, Propionic acid, 2-{{2-{5-[3,6-dihydro-3-methyl-2,6-dioxo-4-(trifluoromethyl)-1(2H)-pyrimidinyl]-1,2-benzisothiazol-3-yl}-p-tolyl}oxy}-2-methyl-, 2-chloroethyl ester]","herbicidal effect rating, CYPIR",Cyperus iria; [5],9.0
same,"herbicidal effect rating, CYPIR",Cyperus iria; [6],9.0
same,"herbicidal effect rating, CYPIR",Cyperus iria; [7],9.0
same,"herbicidal effect rating, CYPIR",Cyperus iria; [8],9.0
same,"herbicidal effect rating, CYPIR",Cyperus iria; [9],9.0
same,"herbicidal effect rating, CYPSE",[1]; [5],9.0
same,"herbicidal effect rating, CYPSE",[1]; [7],7.0
same,"herbicidal effect rating, CYPSE",[1]; [8],9.0
same,"herbicidal effect rating, CYPSE",[1]; [9],4.0
same,herbicidal effect rating ORYSAT,[2]; [5],4.0
same,herbicidal effect rating ORYSAT,[2]; [6],9.0
same,herbicidal effect rating ORYSAT,[2]; [7],9.0
same,herbicidal effect rating ORYSAT,[2]; [8],9.0
same,herbicidal effect rating ORYSAT,[2]; [9],8.0
same,"herbicidal effect rating, ECHORC",[3]; [5],5.4
same,"herbicidal effect rating, ECHORC",[3]; [6],5.6
same,"herbicidal effect rating, ECHORC",[3]; [7],6.4
same,"herbicidal effect rating, ECHORC",[3]; [8],9.0
same,"herbicidal effect rating, ECHORC",[3]; [9],9.0
same,"herbicidal effect rating, MOOVA",[4]; [5],9.0
same,"herbicidal effect rating, MOOVA",[4]; [6],9.0
same,"herbicidal effect rating, MOOVA",[4]; [7],9.0
same,"herbicidal effect rating, MOOVA",[4]; [8],9.0
same,"herbicidal effect rating, MOOVA",[4]; [9],9.0
same,"herbicidal effect rating, SAGPY","Sagittaria pygmaea, L.; [5]",7.0
same,"herbicidal effect rating, SAGPY","Sagittaria pygmaea, L.; [6]",4.0
same,"herbicidal effect rating, SAGPY","Sagittaria pygmaea, L.; [7]",8.0
same,"herbicidal effect rating, SAGPY","Sagittaria pygmaea, L.; [8]",9.0
same,"herbicidal effect rating, SAGPY","Sagittaria pygmaea, L.; [9]",9.0
"Cn1c(C(F)(F)F)cc(=O)n(-c2ccc3snc(C=C(Br)Br)c3c2)c1=O [Example 284, 2,4(1H,3H)-Pyrimidinedione, 3-[3-(2,2-dibromovinyl)-1,2-benzisothiazol-5-yl]-1-methyl-6-(trifluoromethyl)-]",CYPIR herbicidal effect rating,Cyperus iria; [10],4.0
same,CYPIR herbicidal effect rating,Cyperus iria; [11],9.0
same,CYPIR herbicidal effect rating,Cyperus iria; [12],9.0
same,CYPIR herbicidal effect rating,Cyperus iria; [13],9.0
same,CYPSE herbicidal effect rating,[1]; [10],0.0
same,CYPSE herbicidal effect rating,[1]; [11],0.0
same,CYPSE herbicidal effect rating,[1]; [12],2.0
same,CYPSE herbicidal effect rating,[1]; [13],9.0
same,ORYSAT herbicidal effect rating,[2]; [10],0.0
same,ORYSAT herbicidal effect rating,[2]; [11],0.0
same,ORYSAT herbicidal effect rating,[2]; [12],0.0
same,ORYSAT herbicidal effect rating,[2]; [13],0.0
same,ECHORC herbicidal effect rating,[3]; [10],0.0
same,ECHORC herbicidal effect rating,[3]; [11],0.0
same,ECHORC herbicidal effect rating,[3]; [12],0.0
same,ECHORC herbicidal effect rating,[3]; [13],0.0
same,MOOVA herbicidal effect rating,[4]; [10],4.0
same,MOOVA herbicidal effect rating,[4]; [11],9.0
same,MOOVA herbicidal effect rating,[4]; [12],9.0
same,MOOVA herbicidal effect rating,[4]; [13],9.0
same,SAGPY herbicidal effect rating,"Sagittaria pygmaea, L.; [10]",0.0
same,SAGPY herbicidal effect rating,"Sagittaria pygmaea, L.; [11]",0.0
same,SAGPY herbicidal effect rating,"Sagittaria pygmaea, L.; [12]",0.0
same,SAGPY herbicidal effect rating,"Sagittaria pygmaea, L.; [13]",0.0
"Cn1c(C(F)(F)F)cc(=O)n(-c2cc3c(C(Br)Br)nsc3cc2F)c1=O [Example 372, 2,4(1H,3H)-Pyrimidinedione, 3-[3-(dibromomethyl)-6-fluoro-1,2-benzisothiazol-5-yl]-1-methyl-6-(trifluoromethyl)-]","herbicidal effect rating, CYPIR",Cyperus iria; [10],8.5
same,"herbicidal effect rating, CYPIR",Cyperus iria; [11],9.0
same,"herbicidal effect rating, CYPIR",Cyperus iria; [12],9.0
same,"herbicidal effect rating, CYPIR",Cyperus iria; [13],9.0
same,"herbicidal effect rating, CYPSE",[1]; [10],1.0
same,"herbicidal effect rating, CYPSE",[1]; [11],5.0
same,"herbicidal effect rating, CYPSE",[1]; [12],8.5
same,"herbicidal effect rating, CYPSE",[1]; [13],9.0
same,herbicidal effect rating ORYSAT,[2]; [10],6.0
same,herbicidal effect rating ORYSAT,[2]; [11],8.0
same,herbicidal effect rating ORYSAT,[2]; [12],8.0
same,herbicidal effect rating ORYSAT,[2]; [13],9.0
same,"herbicidal effect rating, ECHORC",[3]; [10],9.0
same,"herbicidal effect rating, ECHORC",[3]; [11],9.0
same,"herbicidal effect rating, ECHORC",[3]; [12],9.0
same,"herbicidal effect rating, ECHORC",[3]; [13],9.0
same,"herbicidal effect rating, MOOVA",[4]; [10],9.0
same,"herbicidal effect rating, MOOVA",[4]; [11],9.0
same,"herbicidal effect rating, MOOVA",[4]; [12],9.0
same,"herbicidal effect rating, MOOVA",[4]; [13],9.0
same,"herbicidal effect rating, SAGPY","Sagittaria pygmaea, L.; [10]",8.5
same,"herbicidal effect rating, SAGPY","Sagittaria pygmaea, L.; [11]",9.0
same,"herbicidal effect rating, SAGPY","Sagittaria pygmaea, L.; [12]",9.0
same,"herbicidal effect rating, SAGPY","Sagittaria pygmaea, L.; [13]",9.0
